Drawing on patent US20250188110A1, “SPECIFIC SMALL MOLECULE INHIBITORS THAT BLOCK KMT9 METHYLTRANSFERASE ACTIVITY AND FUNCTION” (ALBERT-LUDWIGS-UNIVERSITÄT FREIBURG, priority 2021, published 2025), this text covers ΔTm, Kd and IC50 for 20 compounds.

Assay [1] addresses T1, KMT9 (Homo sapiens, UniProt Q9Y5N5).
T1 sequence (Q9Y5N5 1-214): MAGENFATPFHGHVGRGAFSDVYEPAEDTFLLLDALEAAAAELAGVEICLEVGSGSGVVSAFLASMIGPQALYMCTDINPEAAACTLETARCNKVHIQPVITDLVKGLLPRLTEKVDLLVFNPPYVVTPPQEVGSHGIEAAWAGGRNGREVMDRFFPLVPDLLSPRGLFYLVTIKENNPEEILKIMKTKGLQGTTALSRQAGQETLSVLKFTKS
T1 sequence (Q9UI30 1-120 isoform Q9UI30-2 partner): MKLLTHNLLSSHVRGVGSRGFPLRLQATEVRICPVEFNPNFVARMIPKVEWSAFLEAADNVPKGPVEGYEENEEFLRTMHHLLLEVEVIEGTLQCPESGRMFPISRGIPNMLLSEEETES
In words: KMT9 thermal shift assay (SyproOrange). It counts as binding. Conditions: ΔTm; 500 µM compound, 2 μM KMT9, 5X SO; read-out: Thermal shift. The gist of the method:
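Recombinant KMT9 was incubated with compound and SyproOrange at 25° C in 50 mM BTP pH 8.5, 1 mM MgCl2, 1 mM DTT. It was then heated from 20° C to 95° C at 1° C per 15 s with fluorescence read each step. Tm came from a Boltzmann sigmoidal fit; ΔTm relative to DMSO control, binned in 5 K ranges.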

In assay [2] the target is T1, KMT9. In words: Microscale thermophoresis (MST) KMT9 binding. Conditions: microscale thermophoresis, His-tag labelled KMT9 (20 nM); read-out: MST. The gist of the method: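 His-tagged KMT9 (20 nM), RED-Tris-NTA labelled, titrated with varying compound concentrations in 25 mM HEPES pH 7.5, 100 mM NaCl, 1 mM DTT, 0.05% Tween. MST at 40% MST and 100% LED power, Nano-RED excitation; Kd binned A ≤10 nM, B 10–100, C 100–1000, D >1000 nM.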

Assay [3] deals with T1, KMT9. In words: KMT9 methyltransferase inhibition assay, 3H-SAM scintillation (entries 1-154). It counts as biochemical. Conditions: entries 1-154: 3H-SAM assay, 25 nM KMT9, 5 μM ETF1. In outline:
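Final 25 nM KMT9, 5 μM ETF1 (residues 140-275), 0.3 μM 3H-SAM plus 0.7 μM SAM in pH 8.5 BTP buffer, 2 h at 30° C. TCA-quenched, filter-washed, methylation counted by scintillation; % inhibition vs DMSO and no-enzyme controls, IC50 from four-parameter fit.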

pIC50, pKd: −log10 of the molar value.

`CNc1ncnc2c1ccn2[C@@H]1C[C@H](CN2CCC23CNC3)[C@@H](O)[C@H]1O` [445 (317), (1S,2R,3R,5R)-3-((1,6-Diazaspiro[3.3]heptan-1-yl)methyl)-5-(4-(methylamino)-7H-pyrrolo[2,3-d]pyrimidin-7-yl) cyclopentane-1,2-diol]: at KMT9 [1], the ΔTm at 500 µM was no more than 10 °C. Further, at KMT9 [2], the pKd was less than 6.00. For the same compound, the pIC50 at KMT9 [3] is less than 5.00.
Take `CNc1ncnc2c1ccn2[C@@H]1C[C@H](CN2CCC23CCNC3)[C@@H](O)[C@H]1O` (stereo partly drawn) [446 (318), (1S,2R,3R,5R)-3-{1,6-Diazaspiro[3.4]octan-1-ylmethyl}-5-[4-(methylamino)pyrrolo[2,3-d]pyrimidin-7-yl]cyclopentane-1,2-diol]: at KMT9 [1], the ΔTm at 500 µM is no more than 10 °C. On KMT9 [2], the pKd is less than 6.00. On KMT9 [3], this compound gave a negative-log IC50 (pIC50) of less than 5.00.
For `CNc1ncnc2c1ccn2[C@@H]1C[C@H](CN2CCC23CCCNC3)[C@@H](O)[C@H]1O` (stereo partly drawn) [447 (319), (1S,2R,3R,5R)-3-{1,6-Diazaspiro[3.5]nonan-1-ylmethyl}-5-[4-(methylamino)pyrrolo[2,3-d]pyrimidin-7-yl]cyclopentane-1,2-diol], the ΔTm at 500 µM on KMT9 [1] is no more than 10 °C. Also, the pKd on KMT9 [2] was less than 6.00. The pIC50 against KMT9 [3] is less than 5.00.
On the same counts, the results for `CNc1ncnc2c1ccn2[C@@H]1C[C@H](CN2CCCCC23CCNC3)[C@@H](O)[C@H]1O` (stereo partly drawn) [448 (320), (1S,2R,3R,5R)-3-{2,6-diazaspiro[4.5]decan-6-ylmethyl}-5-[4-(methylamino)pyrrolo[2,3-d]pyrimidin-7-yl]cyclopentane-1,2-diol] are no more than 10 °C, less than 6.00 and less than 5.00.
As for `CNc1ncnc2c1ccn2[C@@H]1C[C@H](CN2CCCC23CCNCC3)[C@@H](O)[C@H]1O` [451 (323), (1S,2R,3R,5R)-3-((1,8-Diazaspiro[4.5]decan-1-yl)methyl)-5-(4-(methylamino)-7H-pyrrolo[2,3-d]pyrimidin-7-yl) cyclopentane-1,2-diol], the ΔTm at 500 µM on KMT9 [1] was no more than 10 °C. Besides, on KMT9 [2], the pKd was less than 6.00. Further, the pIC50 at KMT9 [3] was less than 5.00.
On the same counts, the results for `Nc1ncnc2c1c(Br)cn2[C@@H]1C[C@H](C(=O)NCCCNCCc2ccccc2)[C@@H](O)[C@H]1O` [452 (324), (1S,2R,3S,4R)-4-(4-Amino-5-bromo-7H-pyrrolo[2,3-d]pyrimidin-7-yl)-2,3-dihydroxy-N-(3-(phenethylamino)propyl) cyclopentane-1-carboxamide] are 15 to 20 °C, 7.00 to 8.00 and 6.00 to 7.00.
The like results for `Nc1ncnc2c1c(Br)cn2[C@@H]1C[C@H](C(=O)NC[C@H]2CCCNC2)[C@@H](O)[C@H]1O` [453 (325), (1S,2R,3S,4R)-4-(4-Amino-5-bromo-7H-pyrrolo[2,3-d]pyrimidin-7-yl)-2,3-dihydroxy-N-(((S)-piperidin-3-yl)methyl) cyclopentane-1-carboxamide] were, in that order, 10 to 15 °C, 6.00 to 7.00 and less than 5.00.
With `Nc1ncnc2c1c(Br)cn2[C@@H]1C[C@H](C(=O)NC[C@@H]2CCCNC2)[C@@H](O)[C@H]1O` [454 (326), (1S,2R,3S,4R)-4-(4-Amino-5-bromo-7H-pyrrolo[2,3-d]pyrimidin-7-yl)-2,3-dihydroxy-N-(((R)-piperidin-3-yl)methyl) cyclopentane-1-carboxamide], the ΔTm at 500 µM at KMT9 [1] is 10 to 15 °C. Besides, the pKd at KMT9 [2] was 6.00 to 7.00. Also, the pIC50 against KMT9 [3] was less than 5.00.
In the case of `Nc1ncnc2c1c(Br)cn2[C@@H]1C[C@H](CNC[C@H]2CCCNC2)[C@@H](O)[C@H]1O` [455 (327), (1R,2S,3R,5R)-3-(4-Amino-5-bromo-7H-pyrrolo[2,3-d]pyrimidin-7-yl)-5-(((((S)-piperidin-3-yl)methyl)amino)methyl)cyclopentane-1,2-diol], the ΔTm at 500 µM on KMT9 [1] was in the range of 10 to 15 °C. Besides, the pKd at KMT9 [2] is less than 6.00. This compound also had a negative-log IC50 (pIC50) on KMT9 [3] of less than 5.00.
The like results for `Nc1ncnc2c1c(Br)cn2[C@@H]1C[C@H](CNC[C@@H]2CCCNC2)[C@@H](O)[C@H]1O` [456 (328), (1R,2S,3R,5R)-3-(4-Amino-5-bromo-7H-pyrrolo[2,3-d]pyrimidin-7-yl)-5-(((((R)-piperidin-3-yl)methyl)amino)methyl) cyclopentane-1,2-diol] were, in that order, 10 to 15 °C, less than 6.00 and less than 5.00.
The like results for `Nc1ncnc2c1c(Br)cn2[C@@H]1C[C@H](CNCCCNCCc2cccc(Oc3ccccc3)c2)[C@@H](O)[C@H]1O` [457 (329)] were, in that order, 15 to 20 °C, 7.00 to 8.00 and 6.00 to 7.00.
`CNc1ncnc2c1c(Br)cn2[C@@H]1C[C@H](CNCCCNCCc2cccc(Oc3ccccc3)c2)[C@@H](O)[C@H]1O` [458 (330), (1R,2S,3R,5R)-3-(5-Bromo-4-(methylamino)-7H-pyrrolo[2,3-d]pyrimidin-7-yl)-5-(((3-((3-phenoxyphenethyl)amino)propyl)amino)methyl) cyclopentane-1,2-diol]: at KMT9 [1], the ΔTm at 500 µM was no more than 10 °C. The pKd on KMT9 [2] was less than 6.00. This compound had a pIC50 at KMT9 [3] of less than 5.00.
The like results for `CCc1cn([C@@H]2C[C@H](CNCCCNCCc3cccc(Oc4ccccc4)c3)[C@@H](O)[C@H]2O)c2ncnc(N)c12` [459 (332), (1R,2S,3R,5R)-3-(4-Amino-5-ethyl-7H-pyrrolo[2,3-d]pyrimidin-7-yl)-5-(((3-((3-phenoxyphenethyl)amino)propyl)amino)methyl) cyclopentane-1,2-diol] were, in that order, 15 to 20 °C, 7.00 to 8.00 and 5.00 to 6.00.
`Nc1ncnc2c1c(C1CC1)cn2[C@@H]1C[C@H](CNCCCNCCc2cccc(Oc3ccccc3)c2)[C@@H](O)[C@H]1O` [460 (333), (1R,2S,3R,5R)-3-(4-Amino-5-cyclopropyl-7H-pyrrolo[2,3-d]pyrimidin-7-yl)-5-(((3-((3-phenoxyphenethyl)amino)propyl)amino)methyl) cyclopentane-1,2-diol]: on KMT9 [1], the ΔTm at 500 µM lay in the range of 15 to 20 °C. The pKd at KMT9 [2] was 7.00 to 8.00. For the same compound, the negative logarithm of the IC50 (pIC50) at KMT9 [3] was 6.00 to 7.00.
The like results for `Nc1ncnc2c1c(-c1ccccc1)cn2[C@@H]1C[C@H](CNCCCNCCc2cccc(Oc3ccccc3)c2)[C@@H](O)[C@H]1O` [461 (334), (1R,2S,3R,5R)-3-(4-Amino-5-phenyl-7H-pyrrolo[2,3-d]pyrimidin-7-yl)-5-(((3-((3-phenoxyphenethyl)amino)propyl)amino)methyl) cyclopentane-1,2-diol] were, in that order, 15 to 20 °C, 6.00 to 7.00 and 6.00 to 7.00.
Turning to `C=Cc1cn([C@@H]2C[C@H](CNCCCNCCc3cccc(Oc4ccccc4)c3)[C@@H](O)[C@H]2O)c2ncnc(N)c12` [462 (336), (1R,2S,3R,5R)-3-{4-Amino-5-ethenylpyrrolo[2,3-d]pyrimidin-7-yl}-5-{[(3-{[2-(3-phenoxyphenyl)ethyl]amino}propyl)amino]methyl}cyclopentane-1,2-diol], at KMT9 [1], the ΔTm at 500 µM lay within 15 to 20 °C. Further, on KMT9 [2], the pKd is 7.00 to 8.00. The compound also showed a pIC50 on KMT9 [3] of 5.00 to 6.00.
On the same counts, the results for `Nc1ncnc2c1c(Br)cn2[C@@H]1C[C@H](CNCCCNCCc2ccccc2)[C@@H](O)[C@H]1O` [463 (337), (1R,2S,3R,5R)-3-(4-Amino-5-bromo-7H-pyrrolo[2,3-d]pyrimidin-7-yl)-5-(((3-(phenethylamino)propyl)amino)methyl) cyclopentane-1,2-diol] are 15 to 20 °C, 7.00 to 8.00 and less than 5.00.
The like results for `C=Cc1cn([C@@H]2C[C@H](CNCCCNCCc3ccccc3)[C@@H](O)[C@H]2O)c2ncnc(N)c12` [464 (338), (1R,2S,3R,5R)-3-(4-amino-5-vinyl-7H-pyrrolo[2,3-d]pyrimidin-7-yl)-5-(((3-(phenethylamino)propyl)amino)methyl) cyclopentane-1,2-diol] were, in that order, 10 to 15 °C, 7.00 to 8.00 and 5.00 to 6.00.
`CCc1cn([C@@H]2C[C@H](CNCCCNCCc3ccccc3)[C@@H](O)[C@H]2O)c2ncnc(N)c12` [465 (339), (1R,2S,3R,5R)-3-{4-amino-5-ethylpyrrolo[2,3-d]pyrimidin-7-yl}-5-[{{3-[(2-phenylethyl)amino]propyl}amino)methyl]cyclopentane-1,2-diol]: the ΔTm at 500 µM on KMT9 [1] lay in the range of 10 to 15 °C. Besides, the pKd on KMT9 [2] is 6.00 to 7.00. This compound had a pIC50 at KMT9 [3] of 5.00 to 6.00.
Regarding `Nc1ncnc2c1c(-c1ccccc1)cn2[C@@H]1C[C@H](CNCCCNCCc2ccccc2)[C@@H](O)[C@H]1O` [466 (340), (1R,2S,3R,5R)-3-{4-amino-5-phenylpyrrolo[2,3-d]pyrimidin-7-yl}-5-[({3-[(2-phenylethyl)amino]propyl}amino)methyl]cyclopentane-1,2-diol], on KMT9 [1], the ΔTm at 500 µM fell in the range of 10 to 15 °C. In addition, the pKd on KMT9 [2] is 6.00 to 7.00. The compound also gave a pIC50 against KMT9 [3] of 6.00 to 7.00.
